Assay results published in patent US12594257B2, “Means and methods for improving anti-tumoral efficacy of transmembrane channel protein blockers” (ARDAN PHARMA S.A.S., priority 2021, dated 2026).
“Also recorded” adds a separate entry of the source. Where two headings read alike, the source gives them in different places.

Experiments:
[1] = system: L-type voltage-gated Ca2+ channels; conditions: cited from earlier work
murine cancer models = conditions: cited from earlier work; for Tumor growth, preventive protocol: before tumor establishment
[2] = mouse, in vivo; cited from earlier work
CD11c+ splenic DCs = experiment: Antigen cross-presentation assay in mouse splenic dendritic cells (B3Z T cell activation, β-galactosidase readout); format: cell-based
Description: Antigen cross-presentation assays in mouse splenic dendritic cells: To obtain splenic DCs, spleen of C57BL/6 mice was extracted, cut into small pieces and treated with collagenase-D (Roche, Merck). After 30 minutes of incubation at 37° C., the enzymatic reaction was stopped with a 10 mM EDTA solution. Lysis of red blood cells was performed with an ammonium chloride solution. Finally, cells were washed with PBS/SFB1%. […] Briefly, splenic cells were labeled with anti-CD11c antibodies conjugated to the beads. The cells were allowed to pass through a magnetic column subjected to a magnetic field. Thereby, CD11c^+ cells were retained on the column. […]
CD11c^+ spleen cells were incubated with 3 mg/mL of soluble OVA, or OVA plus 20 μM of free (+)-BayK8644, 20 μM of (+)-BayK8644 encapsulated into chitosan nanoparticles (NP-BayK8644) or empty counterpart (eNP) for 4 hours in supplemented-RPMI medium. […] The activation of B3Z cell line was measured detecting β-galactosidase activity by optical density (absorbance at 595-655 nm) using chlorophenol red-β-D-galactopyranoside (CPRG; Roche) as substrate for the reaction.
(+)-BayK8644 inhibits antigen cross-presentation by splenic DCs in vitro: We first studied whether (+)-BayK8644 inhibits antigen cross-presentation in vitro. […] B3Z T cell activation was measured by assessing β-galactosidase activity in a colorimetric assay. […]

E.G7-OVA thymic lymphoma = experiment: Therapeutic treatment of established E.G7-OVA tumors, intratumoral injection; format: in vivo, mouse; conditions: WT mice, established EG7 tumors, i.t. 70 nmoles every two days, five injections; vs eNPs or vehicle
Description: Tumor Models and Treatments: WT and Tmem176b^−/− C57BL/6 mice were injected s.c with 0.5×10^6 E.G7-OVA thymic lymphoma cells. At the indicated experiment, injection was performed alternating one Tmem176b and one Tmem176b^−/− mouse until completing both groups. In treated animals, alternation was done between (+)-BayK8644- and vehicle-treated animals or NP-BayK8644 and eNP-treated animals. Tumor growth was caliper measured manually every 2-3 days, and the two major diameters were taken. 70 nmoles of free (+)-BayK8644 or (+)-BayK8644 encapsulated in chitosan nanoparticles, or the same amount of empty NPs injections were repeated at the +2, +4, +6, +8 days after the first injection. Mice were sacrificed when one of the major tumor diameters reached 2 cm.
WT and Tmem176b^−/− animals were inoculated with EG7 tumors. Once tumors reached 25 mm^2, animals were i.t. injected with 70×10^−9 moles of (+)-BayK8644, NP-PEG-BayK8644 or eNP-PEG. Treatments were repeated every two days reaching a total of five injections. Mice were euthanized when the longer diameter reached tumors reached […].

SMILES | Effect on L-type Ca++ channels [1] | Tumor growth, preventive protocol (murine cancer models) | Tumor growth, preventive protocol (murine cancer models; listed as BayK8644) | Caspase-1 activation in the TDLN (murine cancer models; i.p) | Tumor growth, therapeutic protocol (murine cancer models; mice bearing established tumors) | Toxicities in mice [2] | B3Z T cell activation by DCs loaded with OVA protein (cross-presentation) (CD11c+ splenic DCs; 3 mg/ml soluble OVA 4 hours, 10 μM or 20 μM) | B3Z T cell activation by DCs loaded with OVA peptide SIINFEKL (CD11c+ splenic DCs; SIINFEKL 45 minutes, 20 μM) | Mouse survival (E.G7-OVA thymic lymphoma) | Tumor growth (E.G7-OVA thymic lymphoma)
COC(=O)C1=C(C)NC(C)=C([N+](=O)[O-])C1c1ccccc1C(F)(F)F (single isomer, unassigned; (-)) [(−)-BayK8644] | agonists | – | – | – | – | – | – | – | – | –
COC(=O)C1=C(C)NC(C)=C([N+](=O)[O-])C1c1ccccc1C(F)(F)F (single isomer, unassigned; (+)) [(+)-BayK8644] | inhibitor | controlled tumor growth; also recorded: controlled its growth | controlled tumor growth | increased Caspase-1 activation | failed to do so | not associated with toxicities | significantly decreased their capacity to activate B3Z cells | did not inhibit activation of B3Z cells | failed | failed to control tumor growth
